Assay [1] has as its system SRC-3. Nature of the assay: Western blot of SRC-3 protein expression in prostate cancer cell lines. In kind it is cell-based. To be noted: 1 μM, 6 hours. The text has this: (§1) Ponceau S was used to stain proteins.
The test system of assay [2] is SRC-3. Nature of the assay: Subcellular fractionation and Western blot of SRC-3 in nucleus and cytoplasm. In kind it is cell-based. To be noted: 1000 nM, 6 hours.
From the text: as §1
(§2) Nuclear and cytosolic fractions were obtained and analyzed by western blot. Antibodies used include SRC-3, PRK, tubulin, histone-H3, and actin.

For a further assay, the system named is PRK-1. Nature of the assay: Subcellular fractionation and Western blot of PRK-1 in nucleus and cytoplasm. In kind it is cell-based. To be noted: 6 hours.
From the text: as §1, §2

Another assay relates to prostate cancer. The settings on record: Phase 2 human clinical trial, prostate cancer patients; cited from earlier work.
The next assay relates to PKC. The settings on record: read-out: IC50 PKC; cited from earlier work.
The subject of another assay is gastric cancer cells. Nature of the assay: MTT cell viability assay, gastric cancer cells. To be noted: 10-3000 nM, 48 hours, AGS, MKN-45, Hs746T, NCI-N87.
A further assay has as its system prostate cancer cells. Nature of the assay: MTT cell viability assay, prostate cancer cells. To be noted: 10-3000 nM, 48 hours, PC3, DU145, LNCaP.
The test system of a further assay is PRK1. Nature of the assay: Western blot of PRK1 protein expression in prostate cancer cell lines. The settings on record: LNCaP, PC3 and DU145 cells (any of the tested cell lines), 1 μM, 6 hours.
The next assay relates to DEK. Nature of the assay: Western blot of DEK protein levels in prostate, breast and gastric cancer cells, 24 hours, two doses. The settings on record: gastric cancer cells (MKN-45 and NCI-N87).
Another assay relates to SRC3. Nature of the assay: Western blot of SRC3 protein levels in prostate, breast and gastric cancer cells, 24 hours, two doses. The settings on record: for SRC3 protein levels: two doses.

For the compound `C[C@]12O[C@H](C[C@]1(O)CO)n1c3ccccc3c3c4c(c5c6ccccc6n2c5c31)CNC4=O` [lestaurtinib], the “SRC-3 protein expression level” value in the assay with SRC-3 [1] (DU145 cells) is “not significantly altered”; in the assay on SRC-3 [1] (LNCaP cells) it was “profound decrease”; in the assay with SRC-3 [1] (PC3 cells) it was “not significantly altered”. Moreover, the “reduction in cytoplasmic SRC-3, LNCaP compared to PC3 or DU145” value in the assay with SRC-3 [2] (LNCaP cells) was “much more dramatic”. Also, the “nuclear SRC-3 protein levels” value with SRC-3 [2] (LNCaP, DU145 or PC3 cells) is on record as “did not caused a reduction”. Further, in the assay on SRC-3 [2] (all three cell lines (LNCaP, PC3, DU145)), the “SRC-3 protein in the cytoplasm” value is on record as “reduced”. Besides, the “cytoplasmic PRK-1 levels” value in the assay on PRK-1 (LNCaP, PC3, DU145, 1000 nM) is given as “unaltered”. Besides, in the assay with PRK-1 (all three cell lines (LNCaP, PC3, DU145), 1000 nM), the “nuclear PRK-1 protein levels” value was “increased”. In the assay with prostate cancer, the “primary clinical endpoint of reduced PSA levels” value is listed as “failed to achieve the primary clinical endpoint of reduced PSA levels”. Moreover, in the assay on PKC, the IC50 was 226 nM. Moreover, the “viability of gastric cancer cells” value in the assay on gastric cancer cells is “effective in reducing viability”. Moreover, in the assay on prostate cancer cells, the “viability of prostate cancer cells” value is reported as “effective in reducing viability”. Besides, the “PRK1 protein expression level” value in the assay with PRK1 is on record as “not significantly altered”. Moreover, the DEK levels result in the assay on DEK is “did not change”. In addition, the SRC3 protein levels entry in the assay with SRC3 (MCF7 breast cancer cells) was “most profound dose-dependent decrease”; in the assay on SRC3 (ZR75-1 breast cancer cells), “no obvious change”. Besides, the SRC3 expression levels result in the assay with SRC3 (MKN-45 gastric cancer cells, higher dose) was “showed a decrease”.

Values taken from patent publication US10449202B2, “Rationale-based design of a targeted therapy for cancer” (priority 2013, dated 2019).
